Measurements reported in PMC6407576, “Synthesis and evaluation of anticancer, antiphospholipases, antiproteases, and antimetabolic syndrome activities of some 3H-quinazolin-4-one derivatives” (Journal of Enzyme Inhibition and Medicinal Chemistry, 2019).
≈ marks a conversion by molar mass, not a printed value. Entries after “also recorded” stand apart in the source; their conditions may differ. Where two headings read alike, the source gives them in different places.

Columns and labels:
[1] = molecular target: thrombin (Homo sapiens, UniProt P00734); assay: In vitro antiprotease activity; assay type: biochemical
Experimental: (§1) The inhibitory effects of 21 3H-quinazolin-4-one derivatives on several available therapeutically important proteases such as cathepsin-B, collagenase, elastase, thrombin, and trypsin were investigated. […] The protease inhibitory activity was expressed as inhibition percentage, which was determined by comparison with a control experiment. The results were expressed as IC50 values that were determined from the standard curve. A protease inhibitor cocktail (Sigma) was used as the positive control.

[2] = molecular target: cathepsin-B (Homo sapiens, UniProt P07858); assay: In vitro antiprotease activity; assay type: biochemical
Experimental: as §1

[3] = molecular target: elastase; assay: In vitro antiprotease activity; assay type: biochemical; conditions: 15 min preincubation
Experimental: as §1

[4] = molecular target: collagenase; assay: In vitro antiprotease activity; assay type: biochemical; conditions: 15 min preincubation
Experimental: as §1

[5] = molecular target: T1, trypsin (Bos taurus, UniProt P00760); assay: In vitro antiprotease activity; assay type: biochemical
T1 construct: gene PRSS1
T1 sequence (P00760 24-246): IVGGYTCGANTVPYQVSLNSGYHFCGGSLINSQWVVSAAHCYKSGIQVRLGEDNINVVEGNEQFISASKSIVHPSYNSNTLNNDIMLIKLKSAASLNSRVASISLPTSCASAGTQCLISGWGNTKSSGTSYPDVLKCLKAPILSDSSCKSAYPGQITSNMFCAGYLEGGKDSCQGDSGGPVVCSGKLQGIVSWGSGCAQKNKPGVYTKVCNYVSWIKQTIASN
Experimental: as §1

[6] = molecular target: T2, human group X (hG-X) sPLA2 (Homo sapiens, UniProt O15496); assay: In vitro antiphospholipase activity; assay type: biochemical
T2 sequence (O15496 43-165): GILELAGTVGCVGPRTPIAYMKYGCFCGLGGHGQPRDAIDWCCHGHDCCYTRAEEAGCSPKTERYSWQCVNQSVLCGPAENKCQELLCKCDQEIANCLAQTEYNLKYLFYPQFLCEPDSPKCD

[7] = system: HT-29 cells; assay: Cytotoxicity assay using the xCELLigence system; assay type: cell-based, Human; conditions: HT-29, 20 and 40 µg/ml, 3 d, xCELLigence RTCA
Experimental: (§2) The optimal seeding concentration for proliferation of HT-29 was determined. HT-29 cells (5000 cell in 150 µl medium/well) and SW620 cells (12,000 cell in 150 µl medium/well) were seeded in 16 well plates (E-plate 16-ACEA Biosciences Inc., San Diego, CA) as described in the xCELLigence Real Time Cell Analyzer (RTCA) DP instrument manual provided by the manufacturer. After 24 h, 20 and 40 µg/ml of compound 15d were added and the experiments were allowed to run for another 3 d. Baseline cell indexes were calculated for at least two measurements from three replicate experiments.

[8] = system: SW620 cells; assay: Cytotoxicity assay using the xCELLigence system; assay type: cell-based, Human; conditions: SW620, 20 and 40 µg/ml, 3 d, xCELLigence RTCA
Experimental: as §2

[9] = molecular target: T3, human group IIA (hG-IIA) sPLA2 (Homo sapiens, UniProt P14555); assay: In vitro antiphospholipase activity; assay type: biochemical
T3 sequence (P14555 21-144): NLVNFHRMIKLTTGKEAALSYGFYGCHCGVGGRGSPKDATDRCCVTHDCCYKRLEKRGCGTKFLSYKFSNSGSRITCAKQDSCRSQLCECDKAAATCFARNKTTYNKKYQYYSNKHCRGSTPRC

[10] = molecular target: Apis mellifera bee venom (AmPLA2) (Apis mellifera, UniProt P00630); assay: biochemical
Sequence of Apis mellifera bee venom (AmPLA2) (P00630 34-167 limits assumed): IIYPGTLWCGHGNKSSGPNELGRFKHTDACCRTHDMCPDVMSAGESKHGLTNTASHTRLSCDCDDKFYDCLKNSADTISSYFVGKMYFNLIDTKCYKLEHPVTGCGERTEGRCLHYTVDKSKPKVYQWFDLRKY

[11] = system: BclxL; assay: Western blotting of anti-apoptotic protein expression; assay type: cell-based, Human; conditions: SW620 cells, various concentrations, 24 h, immunoblot
Experimental: (§3) Whole cell lysates were prepared using radioimmunoprecipitation assay (RIPA) lysis buffer as described by Al-Khayal and co-workers[41]. Total protein concentration was determined using Bradford protein reagent (Bio-Rad, Hercules, CA). Soluble proteins were loaded on precast TGX gels and were analysed using immunoblotting with anti-Bcl2, anti-BclxL (dilution 1:1000; Santa Cruz Biotechnology, Dallas, TX), and anti-β-actin (1:10,000 Sigma, St. Louis, MO). Reactivity was detected using horseradish peroxidase-conjugated secondary antibodies and chemiluminescence by Clarity Western ECL substrate (Bio-Rad). Membrane was developed using C-Digit Blot Scanner (LI-COR, Hamburg, Germany).
(§4) SW620 cells were treated with various concentrations of 15d for 24 h.

[12] = system: Bcl2; assay: as above; assay type: cell-based, Human; conditions: SW620 cells, various concentrations, 24 h, immunoblot
Experimental: as §3, §4

[13] = molecular target: T4, human group V (hG-V) sPLA2 (Homo sapiens, UniProt P39877); assay: In vitro antiphospholipase activity; assay type: biochemical
T4 sequence (P39877 21-138): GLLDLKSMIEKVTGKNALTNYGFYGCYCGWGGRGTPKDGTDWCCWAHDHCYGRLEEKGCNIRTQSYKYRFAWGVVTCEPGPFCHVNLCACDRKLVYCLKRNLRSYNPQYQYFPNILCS

[14] = molecular target: Naja mossambica mossambica sPLA2 (NmPLA2); assay: In vitro antiphospholipase activity; assay type: biochemical; conditions: 20 min preincubation, lecithin substrate, pH 7.6
[15] = system: HT-29 cells; assay: MTT cell viability assay; assay type: cell-based; conditions: Homo sapiens, HT-29, read-out: IC50 (cell viability)
[16] = molecular target: xanthine oxidase (Homo sapiens, UniProt P47989); assay: In vitro inhibition of xanthine oxidase; assay type: biochemical
Sequence of xanthine oxidase (P47989 whole entry, species assumed): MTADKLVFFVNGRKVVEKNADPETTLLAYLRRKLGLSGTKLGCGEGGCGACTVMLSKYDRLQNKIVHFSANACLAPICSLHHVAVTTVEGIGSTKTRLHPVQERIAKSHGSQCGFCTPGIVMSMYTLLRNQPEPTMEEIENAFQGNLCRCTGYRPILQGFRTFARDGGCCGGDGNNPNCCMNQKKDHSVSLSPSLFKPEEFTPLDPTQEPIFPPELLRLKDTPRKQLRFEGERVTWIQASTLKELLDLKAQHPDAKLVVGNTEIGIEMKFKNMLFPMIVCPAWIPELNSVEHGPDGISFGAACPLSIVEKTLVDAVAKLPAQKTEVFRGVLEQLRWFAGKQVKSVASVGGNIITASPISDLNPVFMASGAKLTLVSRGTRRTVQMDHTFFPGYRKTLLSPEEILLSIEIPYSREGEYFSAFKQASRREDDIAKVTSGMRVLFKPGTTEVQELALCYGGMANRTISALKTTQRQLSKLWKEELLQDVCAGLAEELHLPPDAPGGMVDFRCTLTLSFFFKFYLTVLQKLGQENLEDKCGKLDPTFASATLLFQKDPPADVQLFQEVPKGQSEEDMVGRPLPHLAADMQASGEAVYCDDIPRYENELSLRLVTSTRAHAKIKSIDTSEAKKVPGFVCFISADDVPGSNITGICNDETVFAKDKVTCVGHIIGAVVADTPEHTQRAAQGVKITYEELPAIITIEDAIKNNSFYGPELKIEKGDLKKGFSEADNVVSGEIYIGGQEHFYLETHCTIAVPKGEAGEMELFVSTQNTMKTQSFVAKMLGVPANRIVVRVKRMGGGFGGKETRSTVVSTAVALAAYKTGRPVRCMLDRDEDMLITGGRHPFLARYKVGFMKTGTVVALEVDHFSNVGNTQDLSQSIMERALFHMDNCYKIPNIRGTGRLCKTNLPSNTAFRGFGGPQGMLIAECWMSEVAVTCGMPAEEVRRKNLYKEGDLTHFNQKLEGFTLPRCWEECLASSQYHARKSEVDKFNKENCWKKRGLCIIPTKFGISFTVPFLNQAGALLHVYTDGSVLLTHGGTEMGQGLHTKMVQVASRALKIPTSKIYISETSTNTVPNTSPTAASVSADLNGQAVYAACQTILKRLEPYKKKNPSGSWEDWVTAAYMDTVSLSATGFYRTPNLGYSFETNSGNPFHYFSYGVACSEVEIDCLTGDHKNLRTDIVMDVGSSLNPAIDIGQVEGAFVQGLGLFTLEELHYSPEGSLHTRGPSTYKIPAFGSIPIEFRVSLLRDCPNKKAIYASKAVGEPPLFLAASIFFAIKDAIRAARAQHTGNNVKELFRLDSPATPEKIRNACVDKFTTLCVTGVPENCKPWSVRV
Experimental: The xanthine oxidase inhibitory activities of the examined chemical compounds were determined by following the formation of uric acid from xanthine according to the reported method by Bondet and co-workers[46]. […] The results were expressed as IC50 determined from the curve.

[17] = system: HT-29 cells; assay: MTT cell viability assay; assay type: cell-based, Human; conditions: for inhibition of cell viability (in words): HT-29, 30 μg/ml, MTT
Experimental: (§5) Human CRC cell lines, HT-29 and SW620 cells were grown in RPMI (Invitrogen) containing 10% heat-inactivated foetal bovine serum, 100 µg/ml streptomycin, 100 units/ml penicillin and 2 mmol/l L-glutamine.
(§6) Cell viability was determined using the 3-(4, 5-dimethylthiazolyl-2)–2, 5-diphenyltetrazolium bromide) MTT assay according to Mosmann[40]. 5-Fluorouracil (5-FU) was used as positive control. Briefly, after culturing cells in 96 well plates for 24 h, they were treated with different compounds (30 μg/ml) for 24 h. Freshly prepared MTT (5 mM) solutions were added to the cells and were further incubated for 2 h at 37 °C in 5% CO2. One hundred microliters of dimethyl sulphoxide (DMSO) was added in each well to dissolve the formazan crystal, formed in the reaction during incubation by careful pipetting. The absorbance of the product was measured at 540 nm using a microplate reader. The experiments were performed in triplicate for each condition. The graph illustrates the mean and standard deviation (SD) values of three independent experiments.

[18] = system: SW620 cells; assay: MTT cell viability assay; assay type: cell-based, Human; conditions: for inhibition of cell viability (in words): SW620, 30 μg/ml, MTT
Experimental: as §5, §6

[19] = system: SW620 cells; assay: MTT cell viability assay; assay type: cell-based; conditions: Homo sapiens, SW-620, read-out: IC50 (cell viability)
[20] = molecular target: T5, α-glucosidase (Saccharomyces cerevisiae, UniProt P53341); assay: In vitro inhibition of α-glucosidase activity; assay type: biochemical
T5 construct: purchased Sigma
T5 sequence (P53341 whole entry): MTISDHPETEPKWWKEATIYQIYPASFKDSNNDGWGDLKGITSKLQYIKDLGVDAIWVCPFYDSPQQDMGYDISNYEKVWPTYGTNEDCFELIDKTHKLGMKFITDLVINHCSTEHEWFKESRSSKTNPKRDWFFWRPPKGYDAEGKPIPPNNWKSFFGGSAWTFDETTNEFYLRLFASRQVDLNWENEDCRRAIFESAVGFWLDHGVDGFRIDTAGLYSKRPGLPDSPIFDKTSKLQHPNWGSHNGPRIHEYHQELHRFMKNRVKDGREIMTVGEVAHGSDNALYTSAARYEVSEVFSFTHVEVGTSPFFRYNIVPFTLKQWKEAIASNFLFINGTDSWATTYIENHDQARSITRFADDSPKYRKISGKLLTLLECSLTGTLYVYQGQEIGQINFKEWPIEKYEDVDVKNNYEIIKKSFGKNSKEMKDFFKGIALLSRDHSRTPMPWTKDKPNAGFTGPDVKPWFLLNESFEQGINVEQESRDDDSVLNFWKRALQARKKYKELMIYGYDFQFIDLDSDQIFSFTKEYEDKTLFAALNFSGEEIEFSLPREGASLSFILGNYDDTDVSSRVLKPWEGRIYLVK
Experimental: The colorimetric assay included 2 U of α-glucosidase, 5 mM of 4-NPGP, and 10 mM potassium phosphate buffer, pH 6.9. […] The reading assay was performed using a microplate reader at 405 nm. […] The results were expressed as IC50 determined from the curve.

[21] = 15 min preincubation, read-out: mean IC50 against Thrombin (converted)
[22] = 15 min preincubation, read-out: mean IC50 against Cathepsin-B (converted)
[23] = 15 min preincubation, read-out: mean IC50 against Trypsin (converted)
[24] = 20 min preincubation, lecithin substrate, pH 7.6, read-out: mean IC50 against hG-X (converted)
[25] = 20 min preincubation, lecithin substrate, pH 7.6, read-out: mean IC50 against hG-V (converted)

For Cc1ccc2nc(SCC(=O)Nc3c(C)cccc3C)n(-c3ccccc3)c(=O)c2c1 [Compound 15d, N-(2,6-Dimethyl-phenyl)-2-(6-methyl-4-oxo-3-phenyl-3,4-dihydro-quinazolin-2-ylsulfanyl) -acetamide], the IC50 [1, 21] was 39.6 µM, the IC50 [2, 22] was 9.31 µM and the “mean IC50 against Elastase” value [3] was 15.50 ± 2.12 µg/mL. The “mean IC50 against Collagenase” value [4] was 10.50 ± 0.71 µg/mL, the IC50 [5, 23] was 32.6 µM and the IC50 [6, 24] was 54.7 µM. For the same compound, the melting point was 229 to 230 °C, the “cell proliferation, real time (in words)” value [7] was “inhibit the cell proliferation” and the “cell proliferation, real time (in words)” value [8] was “inhibit the cell proliferation”. The IC50 [9] was 16.6 µM, the IC50 [10] was 14 µM and the “expression of BclxL” value [11] was “down regulating; also recorded: inhibited”. The “expression of Bcl2” value [12] was “down regulating; also recorded: inhibited”, the IC50 [13, 25] was 24.4 µM and the “mean IC50 against NmPLA2” value [14] was 8.50 ± 2.12 µg/mL. For the same compound, the IC50 [15] was roughly 20 µg/mL (≈ 46.6 µM), the IC50 [16] was 165 µM and the “inhibition of cell viability (in words)” value [17] was “potently capable of inhibiting cell viability”. For the same compound, the viability at 30 µg/mL ([17]; Homo sapiens, HT-29, 24 h, read-out: cell viability) was 38%, the viability at 30 µg/mL ([18]; Homo sapiens, SW-620, 24 h, read-out: cell viability) was 36.7% and the “inhibition of cell viability (in words)” value [18] was “potently capable of inhibiting cell viability”. The IC50 [19] was roughly 20 µg/mL (≈ 46.6 µM).
With COc1cc(-n2c(C)nc3ccccc3c2=O)cc(OC)c1OC [Compound 5a, 2 -Methyl-3-(3,4,5-trimethoxy-phenyl)-3H-quinazolin-4-one] the IC50 [1] was 67.4 µM, the IC50 [2] was 25.3 µM and the “mean IC50 against Elastase” value [3] was 23.5 ± 0.71 µg/mL. For the same compound, the “mean IC50 against Collagenase” value [4] was 12.25 ± 1.77 µg/mL, the IC50 [5] was 88.9 µM and the IC50 [20] was 64.3 µM. For the same compound, the IC50 [6] was 23.4 µM, the melting point was 88 to 90 °C and the IC50 [9] was 21.4 µM. For the same compound, the IC50 [10] was 16.9 µM, the IC50 [13] was 29.4 µM and the “mean IC50 against NmPLA2” value [14] was 6.00 ± 0.71 µg/mL. For the same compound, the IC50 [16] was 22.2 µM.
With COc1cccc(/C=N/n2c(C)nc3ccc(Br)cc3c2=O)c1[N+](=O)[O-] [Compound 8f, (E)-6-Bromo-3-[(3-methoxy-2-nitro-benzylidene)-amino]-2-methyl-3H-quinazolin-4-one] the IC50 [1, 21] was 59.9 µM, the IC50 [2, 22] was 45.5 µM and the “mean IC50 against Elastase” value [3] was 30.50 ± 2.12 µg/mL. The “mean IC50 against Collagenase” value [4] was 15.50 ± 2.12 µg/mL, the IC50 [5, 23] was 74.3 µM and the IC50 [6, 24] was 43.1 µM. The melting point was 234 to 235 °C, the IC50 [9] was 44.6 µM and the IC50 [10] was 10.1 µM. For the same compound, the IC50 [13, 25] was 37.7 µM, the “mean IC50 against NmPLA2” value [14] was 6.00 ± 0.71 µg/mL and the IC50 [16] was 7.19 µM. For the same compound, the “inhibition of cell viability (in words)” value [17] was “potently capable of inhibiting cell viability” and the “inhibition of cell viability (in words)” value [18] was “potently capable of inhibiting cell viability”.
